Source: patent US20090111781A1, “Use of Cymipristone Type Compounds in Aids Treatment” (SHANGHAI THREE-ALLIANCE BIOTECHNOLOGIES CO., LTD., priority 2005, published 2009)
In brackets after ≈: the same amount, converted by molar mass.

Experiments:
[1] = MTT toxicity on PBMC infected by HIV-1 AZT-sensitive strain 018a; conditions: human, PBMC, 018a
Experimental: Collect cells with curette, infect cells with 10^−2 AZT sensitive (018a) or AZT resistant (018c) virus strain liquid, and adsorb for 2 hours, Wash off unabsorbed virus with 1640 culture medium without serum, prepare cells infected by virus to 1×10^6/ml with culture solution, and inoculate on 96-pore culture plate, 100 μl/pore. […] Set cell control group and virus infected cell control group. Incubate under 37° C. and 5% CO2. On the fourth day (96 hours), pipette out the supernatant liquid and store under −20° C. for determination of HIV-1 P24 antigen titer and calculation of drug inhibitory action. Add MTT staining to cells for determination of cytotoxicity. Determination of cytotoxicity by MTT staining: Add 10 μl of 5 mg/ml MTT stain into each pore, continue to incubate under 37° C., 5% CO2 and saturated humidity for 4 hours. […] Determine the HIV-1 P24 antigen titer according to the operation procedure provided by the HIV-1 P24 antigen reagent kit. Compare the drug-added group with virus control group. […] Calculation method of 50% toxic concentration (CC50), 50% effective concentration (EC50) and selection index (SI): […]

estrogen receptor ERα = biological target: T1, estrogen receptor ERα (Homo sapiens, UniProt P03372); assay: Binding activity on human nuclear receptor ERα; conditions: mean ± SD, n = 4
T1 sequence (P03372 1-595): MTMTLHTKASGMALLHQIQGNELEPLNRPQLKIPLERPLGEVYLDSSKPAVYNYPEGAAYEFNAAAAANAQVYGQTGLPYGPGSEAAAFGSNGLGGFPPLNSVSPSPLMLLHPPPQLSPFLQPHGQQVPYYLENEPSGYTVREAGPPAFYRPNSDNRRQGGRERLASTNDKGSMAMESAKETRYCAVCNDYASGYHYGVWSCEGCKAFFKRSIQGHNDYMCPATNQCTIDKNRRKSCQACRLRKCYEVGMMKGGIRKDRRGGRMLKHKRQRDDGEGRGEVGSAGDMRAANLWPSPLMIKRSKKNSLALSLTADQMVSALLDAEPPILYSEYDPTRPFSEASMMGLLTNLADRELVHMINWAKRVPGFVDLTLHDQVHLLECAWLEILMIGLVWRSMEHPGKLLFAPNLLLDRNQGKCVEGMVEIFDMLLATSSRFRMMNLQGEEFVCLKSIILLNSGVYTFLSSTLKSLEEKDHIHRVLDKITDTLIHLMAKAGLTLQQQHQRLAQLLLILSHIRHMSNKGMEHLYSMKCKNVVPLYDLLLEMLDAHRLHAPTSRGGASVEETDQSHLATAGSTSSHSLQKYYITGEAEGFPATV
Experimental: Buffer solution is composed of 25 mM NaPO4, 20 mM NaMoO4, 10 mM KF and 10% glycerol (pH=7.3) and stored under 4° C. Stock solution is prepared with CHAPS and DTT and stored under −20° C. […] Add 2.5 μl/hole into 96-pore plate. Take out appropriate amount of buffer solution reserve into solution to make the final concentration of CHAPS and DDT to become 0.25 mM and 2 mM respectively. Add protease inhibitors (aprotinin and leupeptin) to make its final concentration to become 1 μg/μl, and place in an ice bath. After adding human nuclear receptor GR (1:8), PR (1:100), ER (1:2000), AR (1:200) and MR (1:40) into the reaction system respectively, adequately mix suitable quantity of [^3H]-dexamethasone, [^3H]-progesterone, [^3H]-estradiol and [^3H]-DHT (from Amersham), rapidly add into 96-pore plate (100 μl/pore) and incubate overnight under 4° C. On the next day, add 25 μl of hydroxyapatite suspension into each pore and mix with shaking. After incubating for 10 min, separate by centrifuge for 3 min at 2500 rpm. The precipitate is washed with 100 μl of buffer solution and separated by centrifuge twice. Add 150 μl of scintillation solution (from Perkin Elmer) into each pore, mix with shaking and count by MicroBeta counter.

[2] = biological target: T2, glucocorticoid receptor of rat hepatic cytoplasm (Rattus norvegicus, UniProt P06536); assay: Competition inhibition of [3H]-dexamethasone binding in rat hepatic cytoplasm
T2 construct: centrifuge at 175000 g for 1 hour, and take out the supernatant liquid as reserve; from tissue; host or cells: liver cytosol (175000 g supernatant) of adrenalectomised female SD rats
T2 sequence (P06536 1-795): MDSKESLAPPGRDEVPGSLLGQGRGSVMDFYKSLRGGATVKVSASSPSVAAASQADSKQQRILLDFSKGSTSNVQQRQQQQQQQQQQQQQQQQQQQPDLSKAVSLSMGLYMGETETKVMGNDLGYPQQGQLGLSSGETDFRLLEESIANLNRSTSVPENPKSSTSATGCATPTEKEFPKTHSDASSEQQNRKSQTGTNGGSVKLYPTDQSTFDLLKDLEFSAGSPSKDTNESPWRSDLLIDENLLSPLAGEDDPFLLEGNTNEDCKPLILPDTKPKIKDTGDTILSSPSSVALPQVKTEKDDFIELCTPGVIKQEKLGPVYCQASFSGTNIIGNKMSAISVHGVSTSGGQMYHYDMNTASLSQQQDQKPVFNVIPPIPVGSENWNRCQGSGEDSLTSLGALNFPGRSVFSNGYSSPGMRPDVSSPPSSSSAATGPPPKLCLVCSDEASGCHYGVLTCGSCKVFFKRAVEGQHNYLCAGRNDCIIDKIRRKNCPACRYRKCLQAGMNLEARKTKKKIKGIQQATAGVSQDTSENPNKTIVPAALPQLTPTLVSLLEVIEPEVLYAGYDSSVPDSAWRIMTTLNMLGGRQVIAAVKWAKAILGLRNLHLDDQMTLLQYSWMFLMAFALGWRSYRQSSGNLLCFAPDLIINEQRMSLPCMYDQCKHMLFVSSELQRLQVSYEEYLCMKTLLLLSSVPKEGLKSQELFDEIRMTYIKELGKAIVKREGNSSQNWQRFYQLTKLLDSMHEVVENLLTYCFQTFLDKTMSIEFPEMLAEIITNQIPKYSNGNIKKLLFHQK
Experimental: Clean female SD rats, body weight 200-250 g, are fed with certain quantity of food and freely drink water. The temperature is controlled at about 24° C. and an illumination cycle are for 11 hours by day and 13 hours at night. All animals are observed for 1 week before experiment. Incisions are made on two sides below arch of ribs on dorsal position of rats to extirpate adrenal glands. After operation, the rats are fed with physiological saline to maintain water-electrolyte balance. On the third day after operation, animals are acutely executed. The liver is taken out immediately and placed in ice cold buffer solution; the blood should be washed off as much as possible. Take certain quantity of tissue, add buffer solution (1:4), cut the tissue with scissors, intermittently homogenize the tissue under low temperature, centrifuge at 175000 g for 1 hour, and take out the supernatant liquid as reserve. […] Then carry out the competition inhibition experiment.

CC#C[C@]1(O)CC[C@H]2[C@@H]3CCC4=CC(=O)CCC4=C3[C@@H](c3ccc(N(C)C4CCCCC4)cc3)C[C@@]21C [Cymipristone, 11β-[4-(N-methyl-N-cyclohexylamino)phenyl]-17α-(1-propynyl)-17β-hydroxyl-4,9-estradiene-3-one]
CC50 at 96 h ([1]; 50% toxic concentration CC50, Average): 130 µg/mL (≈ 261 µM) | CC50 at 96 h ([1]; 50% toxic concentration CC50, Experiment 1): 104 µg/mL (≈ 208 µM) | CC50 at 96 h ([1]; 50% toxic concentration CC50, Experiment 2): 156 µg/mL (≈ 314 µM) | IC50 (estrogen receptor ERα): 516 ± 62.8 nM | IC50 ratio ([2]; cymipristone : mifepristone): 1.00 | RBA ratio ([2]; dexamethasone : cymipristone : mifepristone): 5.6 | Relative binding activity RBA ([2]; dexamethasone as 100, mean ± SD, n = 4): 557.69 ± 65.23% | IC50 ([2]; mean ± SD, n = 4): 2.6 nM | inhibition at 0.1 µM ([2]; tested compound 1 × 10^−7 mol/L, mean ± SD, n = 4, read-out: Inhibition rate on binding of [3H]-dexamethasone): 88.9 ± 9.01% | inhibition at 0.02 µM ([2]; tested compound 2 × 10^−8 mol/L, mean ± SD, n = 4, read-out: Inhibition rate on binding of [3H]-dexamethasone): 75.6 ± 3.56% | inhibition at 0.004 µM ([2]; tested compound 4 × 10^−9 mol/L, mean ± SD, n = 4, read-out: Inhibition rate on binding of [3H]-dexamethasone): 54.5 ± 4.24% | inhibition at 0.5 µM ([2]; tested compound 5 × 10^−7 mol/L, mean ± SD, n = 4, read-out: Inhibition rate on binding of [3H]-dexamethasone): 95.4 ± 5.34% | inhibition at 0.0008 µM ([2]; tested compound 8 × 10^−10 mol/L, mean ± SD, n = 4, read-out: Inhibition rate on binding of [3H]-dexamethasone): 31.2 ± 3.87% | inhibition at 0.0016 µM ([2]; tested compound 16 × 10^−10 mol/L, mean ± SD, n = 4, read-out: Inhibition rate on binding of [3H]-dexamethasone): 17.2 ± 6.76%
